Reference: patent US9598720B2, “Monomeric and polymeric linkers useful for conjugating biological molecules and other substances” (DAKO Denmark A/S, priority 2005, dated 2017)
Entries after “also recorded” stand apart in the source; their conditions may differ.

test system: repetitive DNA sequence in the centromere of the human chromosome 17; experiment: FISH on metaphases with fluorescein labeled PNAs, green signal compared with a red fluorescent PNA; conditions: visual and Leica QFISH Measure Intensity
Text: The PNA sequence was directed at a repetitive DNA sequence in the centromere of the human chromosome 17, allowing the PNAs to be compared by FISH on metaphases. To erase specimen variation, each of the PNAs was mixed with a red fluorescent PNA directed at the same centromere region on chromosome 17, and the intensity of the red and green signals compared visually and quantified by the “Measure Intensity” function in the Leica QFISH program.

Substance	intensity of the green signal
Ac-Lys(Flu)-L30-AACGGGATAACTGCACCT-L30-Lys(Flu)-L90-Lys(Flu)-L90-Lys(Flu)-NH2 (all peptide nucleic acid (PNA); PNA with Lys(Flu) fluorescein and L30/L90 linkers at the termini, C-terminal amide, further chemistry not fully specified) [Linker derivative 15]	more intense signals
((FlU-L60)2-Lys-L60)2-LyS-L30-AACGGGATAACTGCACCT-NH2 (all peptide nucleic acid (PNA); PNA with Lys(Flu) fluorescein and L30/L90 linkers at the termini, C-terminal amide, further chemistry not fully specified) [Linker derivative 19]	more intense signals
H-Lys(Flu)-L30-AACGGGATAACTGCACCT-L30-Lys(Flu)-L90-Lys(Flu)-L90-Lys(Flu)-NH2 (all peptide nucleic acid (PNA); PNA with Lys(Flu) fluorescein and L30/L90 linkers at the termini, C-terminal amide, further chemistry not fully specified) [Linker derivative 16]	more intense signals; also recorded: most intense
